This note sets out measurements from article PMC11071649, “Synthesis and Selective Anticancer Activity Evaluation of 2-phenylacrylonitrile Derivatives as Tubulin Inhibitors” (Current Medicinal Chemistry, 2024).

Where only a bound is given, the exact number is not on record here.

Holding throughout (assay type): cell-based, human
One assay deals with A549 lung cancer cell. The assay can be described thus: MTT anti-proliferative assay, A549. The note with it: MTT, 48 h. The method, then:
(§1) The anti-proliferation activities of the synthesized analogs were assessed by an in vitro MTT assay conducted on thirteen human cell lines. Their cytotoxic activities were evaluated by measuring the inhibition of net cell growth. […]
(§2) 1.6. Cell lines and cell culture
(§3) MTT was purchased from Sigma-Aldrich Co. (St. Louis, MO, USA). The PI and Annexin V-FITC apoptosis detection kit were purchased from Invitrogen (Eugene, OR, USA). All human cell lines were used in this study. […]
(§4) cell, MCF-7 breast cancer cell, MCF-10A normal breast cell, Raji B lymphoblastoid cell and diffuse large B-cell lymphoma SU-DHL-10 cell were initially purchased from American Type Culture Collection (ATCC, Manassas, Virginia). media, DMEM, and FBS were provided from Gibco Company.
(§5) 1.7. Cell growth inhibition assay (MTT assay)
(§6) The experiment was carried out according to the method of reference. Briefly, cells were plated in 96-well plates at a den- […]
(§7) the anti-proliferative activities were determined by MTT assay. […]
(§8) (Becton-Dickinson, Franklin Lakes, NJ). […]

The next assay concerns AGS gastric cancer cell. The assay can be described thus: MTT anti-proliferative assay, AGS. The note with it: for IC50: MTT, 48 h. On the procedure: as §1, §2, §3, §4, §5, §6, §7, §8
In general terms: Tetrazolium assays rely on reduction of a dye to a coloured formazan, in cell work by metabolically active cells.

Assay [1] has as its system BEL-7402 liver cancer cell. Put plainly: MTT anti-proliferative assay, BEL-7402. The note with it: MTT, 48 h. The method, then: as §1, §2, §3, §4, §5, §6, §7, §8
Assay [2] concerns HCT116 colectal cancer cell. Put plainly: MTT anti-proliferative assay, HCT116. The note with it: for IC50: MTT, 48 h, read-out: IC50 HCT-116. The method, then: as §1, §2, §3, §4, §5, §6, §7, §8
Assay [3] relates to HeLa cervical cancer cell. Put plainly: MTT anti-proliferative assay, HeLa. The note with it: MTT, 48 h. The method, then:
as §1, §2, §3, §4, §5, §6, §7, §8

The next assay has as its system HepG2 hepatoma cell. The assay can be described thus: MTT anti-proliferative assay, HepG2. The note with it: for IC50: MTT, 48 h, read-out: IC50 HepG-2. On the procedure: as §1, §2, §3, §4, §5, §6, §7, §8
In a further assay the test system is L-02 normal liver cell. Put plainly: MTT assay, L-02 normal cells. The note with it: 48 h. The method, then: as §1, §2, §3, §4, §5, §6, §7, §8
Assay [4] has as its system MGC-803 late stage differentiation gastric cancer cell. Put plainly: MTT anti-proliferative assay, MGC-803. The note with it: for IC50: MTT, 48 h. On the procedure:
as §1, §2, §3, §4, §5, §6, §7, §8

Another assay deals with MCF-7 breast cancer cell. Put plainly: MTT anti-proliferative assay, MCF-7. The note with it: MTT, 48 h. On the procedure:
as §1, §2, §3, §4, §5, §6, §7, §8

In assay [5] the test system is MCF-10A normal breast cell. Put plainly: MTT assay, MCF-10A normal cells. The note with it: 48 h. The method, then: as §1, §2, §3, §4, §5, §6, §7, §8
Assay [6] concerns Raji B lymphoblastoid cell. The assay can be described thus: MTT anti-proliferative assay, Raji. The note with it: MTT, 48 h; read-out: IC50 Raji. The method, then: as §1, §2, §3, §4, §5, §6, §7, §8
Assay [7] deals with SGC-7901 early differentiation gastric cancer cell. The assay can be described thus: MTT anti-proliferative assay, SGC-7901. The note with it: for IC50: MTT, 48 h. The method, then: as §1, §2, §3, §4, §5, §6, §7, §8
The test system of assay [8] is diffuse large B-cell lymphoma SU-DHL-10 cell. Put plainly: MTT anti-proliferative assay, SU-DHL-10. The note with it: MTT, 48 h; read-out: IC50 SU-DHL-10. On the procedure: as §1, §2, §3, §4, §5, §6, §7, §8

Broadly, the IC50 is the concentration at which inhibition is half-maximal. As to `COc1ccc(/C=C(\C#N)c2ccc(OC(F)(F)F)cc2)cc1` [Compound 1a2j], the IC50 was more than 100 µM with A549 lung cancer cell; 21.1 ± 5.2 µM with AGS gastric cancer cell; more than 100 µM in assay [1]; 42.5 ± 12.3 µM in assay [2]; more than 100 µM in assay [3]; 72.6 ± 25.3 µM in the assay on HepG2 hepatoma cell. Also, the IC50 with L-02 normal liver cell is more than 100 µM; in assay [4] it was more than 100 µM; with MCF-7 breast cancer cell, more than 100 µM; in assay [5] it was 94.1 ± 3.5 µM; in [6], more than 100 µM; in assay [7], more than 100 µM. In addition, in [8], the IC50 was more than 100 µM. Also, in the assay with AGS gastric cancer cell, the “SI (selectivity index), IC50 (L-02)/IC50 (AGS)” value (from here on “SI (selectivity index) … (AGS)”) is more than 4.7. In [2], the “SI (selectivity index), IC50 (L-02)/IC50 (HCT-116)” value is more than 2.3. Also, the “SI (selectivity index), IC50 (L-02)/IC50 (HepG-2)” value in the assay with HepG2 hepatoma cell was more than 1.3.
In the case of `COc1cccc(/C=C(\C#N)c2ccc(OC(F)(F)F)cc2)c1` [Compound 1a2k], the IC50 (in the assay on A549 lung cancer cell; in the assay with AGS gastric cancer cell; in [1]; in assay [2]; in assay [3]; with HepG2 hepatoma cell) was more than 100 µM each time. For the same molecule, the IC50 (in the assay with L-02 normal liver cell; in [4]; in the assay with MCF-7 breast cancer cell; in assay [5]; in assay [6]; in [7]) was more than 100 µM throughout. The IC50 in assay [8] is more than 100 µM.
As to `COc1cc(/C=C(\C#N)c2ccc(OC(F)(F)F)cc2)cc(OC)c1OC` [Compound 1a2l], the IC50 (in the assay on A549 lung cancer cell; in the assay on AGS gastric cancer cell; in assay [1]; in assay [2]; in [3]; in the assay on HepG2 hepatoma cell) was more than 100 µM in each case. Moreover, the IC50 (with L-02 normal liver cell; in [4]; in the assay on MCF-7 breast cancer cell; in assay [5]; in assay [6]; in [7]) was more than 100 µM throughout. Further, the IC50 in assay [8] is more than 100 µM.
Regarding `CCCOc1ccc(/C=C(\C#N)c2ccc(OC(F)(F)F)cc2)cc1` [Compound 1a2m], the IC50 was more than 100 µM with A549 lung cancer cell; 87.2 ± 5.9 µM with AGS gastric cancer cell; more than 100 µM in [1]; more than 100 µM in assay [2]; more than 100 µM in assay [3]; more than 100 µM with HepG2 hepatoma cell. Moreover, the IC50 (in the assay on L-02 normal liver cell; in assay [4]; in the assay with MCF-7 breast cancer cell; in [5]; in assay [6]; in assay [7]) was more than 100 µM in each case. Besides, the IC50 in assay [8] was more than 100 µM. In the assay on AGS gastric cancer cell, the “SI (selectivity index) … (AGS)” value is on record as more than 1.4.
As for `CCCCOc1ccc(/C=C(\C#N)c2ccc(OC(F)(F)F)cc2)cc1` [Compound 1a2n], the IC50 (with A549 lung cancer cell; with AGS gastric cancer cell; in [1]; in assay [2]; in [3]; with HepG2 hepatoma cell) was more than 100 µM each time. In addition, the IC50 (with L-02 normal liver cell; in assay [4]; in the assay on MCF-7 breast cancer cell; in assay [5]; in assay [6]; in assay [7]) was more than 100 µM in each case. The half-inhibitory concentration (IC50) in assay [8] is more than 100 µM.
Turning to `CCCCCOc1ccc(/C=C(\C#N)c2ccc(OC(F)(F)F)cc2)cc1` [Compound 1a2o], the IC50 (in the assay with A549 lung cancer cell; with AGS gastric cancer cell; in assay [1]; in assay [2]; in assay [3]; in the assay with HepG2 hepatoma cell) was more than 100 µM throughout. In addition, the IC50 (in the assay with L-02 normal liver cell; in assay [4]; with MCF-7 breast cancer cell; in assay [5]; in assay [6]; in assay [7]) was more than 100 µM throughout. Moreover, the IC50 in assay [8] is more than 100 µM.
As to `CCCCCCOc1ccc(/C=C(\C#N)c2ccc(OC(F)(F)F)cc2)cc1` [Compound 1a2p], the IC50 (in the assay on A549 lung cancer cell; in the assay with AGS gastric cancer cell; in assay [1]; in assay [2]; in assay [3]; in the assay on HepG2 hepatoma cell) was more than 100 µM throughout. Further, the IC50 (in the assay with L-02 normal liver cell; in assay [4]; in the assay on MCF-7 breast cancer cell; in assay [5]; in assay [6]; in assay [7]) was more than 100 µM in each case. In addition, the IC50 in [8] was more than 100 µM.
Turning to `Cc1cccc(/C=C(\C#N)c2ccc(OC(F)(F)F)cc2)c1` [Compound 1a2q], the IC50 (in the assay on A549 lung cancer cell; in the assay on AGS gastric cancer cell; in [1]; in [2]; in assay [3]; with HepG2 hepatoma cell) was more than 100 µM each time. For the same molecule, the IC50 (in the assay with L-02 normal liver cell; in assay [4]; in the assay with MCF-7 breast cancer cell; in assay [5]; in assay [6]; in assay [7]) was more than 100 µM in each case. In assay [8], the IC50 is more than 100 µM.
With `Cc1cc(C)c(/C=C(\C#N)c2ccc(OC(F)(F)F)cc2)c(C)c1` [Compound 1a2r], the IC50 (with A549 lung cancer cell; in the assay on AGS gastric cancer cell; in assay [1]; in [2]; in assay [3]; in the assay on HepG2 hepatoma cell) was more than 100 µM throughout. For the same molecule, the IC50 (in the assay with L-02 normal liver cell; in assay [4]; in the assay with MCF-7 breast cancer cell; in [5]; in [6]; in assay [7]) was more than 100 µM throughout. For the same molecule, the IC50 in assay [8] was more than 100 µM.
On to `N#C/C(=C\c1ccc(N2CCOCC2)cc1)c1ccc(OC(F)(F)F)cc1` [Compound 1a2s], for which the IC50 (in the assay on A549 lung cancer cell; in the assay on AGS gastric cancer cell; in [1]; in assay [2]; in assay [3]; in the assay on HepG2 hepatoma cell) was more than 100 µM throughout. Also, the IC50 (with L-02 normal liver cell; in assay [4]; with MCF-7 breast cancer cell; in assay [5]; in assay [6]; in assay [7]) was more than 100 µM throughout. Also, the IC50 in [8] was more than 100 µM.
In the case of `N#C/C(=C\c1ccc(N2CCCC2)cc1)c1ccc(OC(F)(F)F)cc1` [Compound 1a2t], the IC50 was more than 100 µM with A549 lung cancer cell; 89.8 ± 1 µM in the assay on AGS gastric cancer cell; more than 100 µM in assay [1]; 30.8 ± 2.9 µM in assay [2]; more than 100 µM in assay [3]; more than 100 µM in the assay with HepG2 hepatoma cell. Besides, the IC50 with L-02 normal liver cell is more than 100 µM; in [4] it was 41.5 ± 2.1 µM; in the assay on MCF-7 breast cancer cell, more than 100 µM; in assay [5], more than 100 µM; in assay [6] it was more than 100 µM; in [7] it was 57.2 ± 14.3 µM. Moreover, in assay [8], the IC50 was more than 100 µM. Moreover, in the assay on AGS gastric cancer cell, the “SI (selectivity index) … (AGS)” value is on record as more than 1.1. In addition, in [2], the “SI (selectivity index), IC50 (L-02)/IC50 (HCT-116)” value is more than 3.2. Further, the “SI (selectivity index), IC50 (L-02)/IC50 (MGC-803)” value in assay [4] was more than 2.4. The “SI (selectivity index), IC50 (L-02)/IC50 (SGC-7901)” value in assay [7] is more than 1.7.
In the case of `N#C/C(=C\c1ccc(N2CCCCC2)cc1)c1ccc(OC(F)(F)F)cc1` [Compound 1a2u], the IC50 (in the assay on A549 lung cancer cell; with AGS gastric cancer cell; in [1]; in [2]; in [3]; with HepG2 hepatoma cell) was more than 100 µM each time. Further, the IC50 (with L-02 normal liver cell; in assay [4]; with MCF-7 breast cancer cell; in [5]; in [6]; in assay [7]) was more than 100 µM in each case. Also, the IC50 in assay [8] is more than 100 µM.
Turning to `N#C/C(=C\c1ccco1)c1ccc(OC(F)(F)F)cc1` [Compound 1a3a], the IC50 (in the assay with A549 lung cancer cell; in the assay with AGS gastric cancer cell; in assay [1]; in [2]; in assay [3]; with HepG2 hepatoma cell) was more than 100 µM each time. Also, the IC50 (in the assay with L-02 normal liver cell; in assay [4]; in the assay with MCF-7 breast cancer cell; in assay [5]; in assay [6]; in assay [7]) was more than 100 µM throughout. The IC50 in assay [8] is more than 100 µM.
